Measurements from patent US12661355B2, “Compounds and methods for inducing UCP1 expression” (The Regents of the University of California, priority 2020, dated 2026).
Entries after “also recorded” stand apart in the source; their conditions may differ.

Columns and labels:
UCP1 = assay: Gene expression in immortalized human white adipocytes; type: cell-based; conditions: 10 μM for 4 days
Experimental: Human immortalized brown and white preadipocytes were obtained from Dr. Yu-Hua Tseng (Joslin Diabetes Center, Harvard Medical School, USA). The generation of the two cell lines from human neck adipose tissue biopsies and immortalization was performed as previously described but from a different donor. Cells were cultured in high glucose DMEM supplemented with 10% FBS and antibiotics. Two days after reaching confluence, cells were treated with 30 μM biotin, 500 nM insulin, 17 μM pantothenate, 100 nM dexamethasone, 2 nM 3,3′,5-Triiodo-L-thyronine, 500 μM IBMX, 30 μM indomethacin and 1 μM rosiglitazone, for 12 days. Afterwards, cells were treated with 30 μM biotin, 500 nM insulin, 17 μM pantothenate and 2 nM 3,3′,5-Triiodo-L-thyronine (Maintenance media) for 2 days with end-point assays performed on day 18, and for 5 days with end-point assays performed on day 21, for the brown and white adipocytes cells, respectively.
Mouse RNA levels were measured by qPCR according to known methods. Data were normalized to B2m and Tbp reference genes. Human RNA was extracted using an RNA Mini Plus kit (Zymo) and gene expression determined by Taqman assay. The 1-step qPCR was run on a QuantStudio 12K Flex Real Time PCR System (ThermoFisher) using the following protocol: 50° C. for 5 minutes, 95° C. for 20 seconds, 40 cycles of 95° C. for 15 seconds and 60° C. for 60 seconds. […]

NRVM = assay: Hypertrophic gene expression in neonatal rat ventricular myocytes; type: cell-based; conditions: 10 μM Z160 concomitantly with 60 μM isoproterenol or 50 μM phenylephrine, 2 days
Experimental: (§1) Rat H9c2 cells were grown in DMEM supplemented with 10% FBS, 25 mM glucose, 1 mM pyruvate, and 2 mM glutamine Neonatal rat ventricular myocytes (NRVM) were isolated and cultured as previously described. Briefly, 2-4 day old rats were sacrificed and myocytes and fibroblasts were isolated and separated using a Percoll density gradient. Following isolation, NRVMs were plated on gelatin-coated plates in DMEM containing 10% FBS, 25 mM glucose, 1 mM pyruvate, and 2 mM glutamine The next day, FBS was replaced by 1× insulin-transferrin-selenium supplement and the cells were treated with vehicle or 10 μM Z160 for 2 days, with or without 60 μM isoproterenol or 50 μM phenylephrine.
RNA levels were measured by qPCR according to known methods. Briefly, RNA was extracted with TRIzol (Invitrogen) and reverse transcribed with iScript (Bio-Rad). Real-time PCR analysis was performed with a CFX Connect (Bio-Rad).

AKAP1 = target: T1, AKAP1 (Rattus norvegicus, UniProt O88884); assay: DARTS in H9c2 cell extracts, AKAP1; type: binding; conditions: 20 μM, 1 h
T1 construct: DARTS assay in H9c2 cell extracts treated with vehicle or 20 μM Z160 for 1 h; endogenous in cells; host or cells: rat H9c2 cells
Experimental: as §1
ARTS assays were performed according to known methods. Briefly, BAT or cells within a 10 cm dish were lysed with 600 μl M-PER buffer containing protease and phosphatase inhibitors. Debris was pelleted by centrifugation at 18,000 g for 10 min at 4° C., and the lysates were harvested and supplemented with TNC buffer (50 mM Tris-HCl, 50 mM NaCl, 10 mM CaCl2). The lysates were split into two tubes and treated with either vehicle or 20 μM Z160 for 1 h at room temperature. For experiment with BAT, 100 μg of lysate was incubated with different Z160 concentrations. […]

p38 MAPK = assay: CETSA in brown adipocytes, p38 MAPK; type: binding, mouse; conditions: 10 μM for 8 h
Experimental: (§2) CETSA assays were performed according to known methods. Briefly, differentiated brown adipocytes (one 10 cm dish per treatment) were treated with vehicle or compounds, trypsinized, counted, and re-suspended in approximately 450 μl PBS containing protease inhibitors (volumes were adjusted to have the same number of cells in each treatment). For each sample, 18 μl was distributed into each of 7 PCR tubes. Samples were heated using a thermocycler with a temperature gradient (iCycler, Biorad) for 3 min, followed by 3 min at room temperature, and then snap-frozen in liquid N2. After two freeze-thaw cycles, samples were centrifuged at 20,000 g for 15 min at 4° C., and the supernatants were transferred to another set of tubes. Proteins were analyzed by immunoblotting.
(§3) The potential interaction of Z160 with PKA subunits and AKAPs was assessed first by identifying which PKA subunits and AKAP isoforms are normally present in BAT. […] To perform the CETSA assays, cultured brown adipocytes were incubated with 10 μM Z160 for 8 h, after which the thermal shift was analyzed by Western blot.

AKAP6 = target: T2, AKAP6 (Mus musculus, UniProt E9Q9K8); assay: CETSA in brown adipocytes, AKAP6; type: binding; conditions: 10 μM for 8 h
T2 construct: endogenous in cells; host or cells: immortalized mouse brown adipocytes
Experimental: as §2, §3

T2 sequence (E9Q9K8 1-2307): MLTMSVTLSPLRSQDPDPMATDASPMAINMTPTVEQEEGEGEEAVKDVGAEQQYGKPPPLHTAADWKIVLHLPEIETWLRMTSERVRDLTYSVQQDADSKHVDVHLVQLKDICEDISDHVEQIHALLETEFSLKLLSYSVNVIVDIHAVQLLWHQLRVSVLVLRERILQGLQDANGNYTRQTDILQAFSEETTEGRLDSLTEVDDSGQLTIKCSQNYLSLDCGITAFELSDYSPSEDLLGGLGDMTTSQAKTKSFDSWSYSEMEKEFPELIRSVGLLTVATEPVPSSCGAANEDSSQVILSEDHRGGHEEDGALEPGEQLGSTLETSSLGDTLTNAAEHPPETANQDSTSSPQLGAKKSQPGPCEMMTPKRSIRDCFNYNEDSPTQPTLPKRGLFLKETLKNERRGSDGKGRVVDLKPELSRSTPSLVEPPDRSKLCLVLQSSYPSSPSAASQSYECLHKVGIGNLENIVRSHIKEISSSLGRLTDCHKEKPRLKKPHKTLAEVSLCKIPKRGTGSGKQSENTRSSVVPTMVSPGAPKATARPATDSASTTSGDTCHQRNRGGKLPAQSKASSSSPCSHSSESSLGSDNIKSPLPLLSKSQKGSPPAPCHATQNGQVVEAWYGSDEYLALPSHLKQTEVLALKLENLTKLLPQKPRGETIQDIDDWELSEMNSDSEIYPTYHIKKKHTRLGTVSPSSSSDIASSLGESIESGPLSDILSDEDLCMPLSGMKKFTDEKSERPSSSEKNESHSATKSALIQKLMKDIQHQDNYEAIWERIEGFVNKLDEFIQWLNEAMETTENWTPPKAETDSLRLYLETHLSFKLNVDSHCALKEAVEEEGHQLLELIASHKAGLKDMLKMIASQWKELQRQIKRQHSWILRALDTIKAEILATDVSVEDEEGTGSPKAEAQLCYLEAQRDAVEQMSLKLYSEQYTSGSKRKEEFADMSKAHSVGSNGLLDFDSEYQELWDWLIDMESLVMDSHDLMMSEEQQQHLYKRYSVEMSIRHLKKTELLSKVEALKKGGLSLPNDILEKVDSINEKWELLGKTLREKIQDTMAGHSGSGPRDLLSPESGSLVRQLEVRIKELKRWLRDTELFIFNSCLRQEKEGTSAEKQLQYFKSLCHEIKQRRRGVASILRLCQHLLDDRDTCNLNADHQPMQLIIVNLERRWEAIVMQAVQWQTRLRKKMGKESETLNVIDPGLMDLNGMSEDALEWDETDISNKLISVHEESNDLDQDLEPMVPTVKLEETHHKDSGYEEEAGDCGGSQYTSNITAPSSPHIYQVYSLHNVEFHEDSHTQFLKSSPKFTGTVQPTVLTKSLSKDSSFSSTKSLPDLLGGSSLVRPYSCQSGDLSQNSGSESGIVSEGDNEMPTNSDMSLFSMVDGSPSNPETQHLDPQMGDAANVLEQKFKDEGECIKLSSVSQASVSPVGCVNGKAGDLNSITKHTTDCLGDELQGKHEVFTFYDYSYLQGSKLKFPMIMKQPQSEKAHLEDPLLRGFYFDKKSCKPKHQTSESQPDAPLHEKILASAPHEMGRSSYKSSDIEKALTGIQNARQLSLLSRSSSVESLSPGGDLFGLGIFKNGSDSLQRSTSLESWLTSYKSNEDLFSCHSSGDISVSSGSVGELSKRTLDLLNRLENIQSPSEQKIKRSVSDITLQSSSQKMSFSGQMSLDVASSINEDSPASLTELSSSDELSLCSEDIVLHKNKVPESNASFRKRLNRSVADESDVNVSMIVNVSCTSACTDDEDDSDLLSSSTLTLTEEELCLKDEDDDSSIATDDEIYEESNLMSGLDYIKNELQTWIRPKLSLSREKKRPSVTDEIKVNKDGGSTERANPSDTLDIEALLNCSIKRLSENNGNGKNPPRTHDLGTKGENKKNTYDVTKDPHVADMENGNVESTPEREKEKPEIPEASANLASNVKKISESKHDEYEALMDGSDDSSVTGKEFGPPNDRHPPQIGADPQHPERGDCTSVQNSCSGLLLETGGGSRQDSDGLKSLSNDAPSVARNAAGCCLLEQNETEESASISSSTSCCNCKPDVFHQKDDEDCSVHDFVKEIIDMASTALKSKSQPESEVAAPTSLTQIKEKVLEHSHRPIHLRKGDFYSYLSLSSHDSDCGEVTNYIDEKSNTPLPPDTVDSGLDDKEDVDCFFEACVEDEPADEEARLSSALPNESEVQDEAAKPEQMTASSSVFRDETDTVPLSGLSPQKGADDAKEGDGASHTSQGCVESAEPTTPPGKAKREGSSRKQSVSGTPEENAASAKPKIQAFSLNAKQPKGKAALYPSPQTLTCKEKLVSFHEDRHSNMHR
T1 sequence (O88884 30-854): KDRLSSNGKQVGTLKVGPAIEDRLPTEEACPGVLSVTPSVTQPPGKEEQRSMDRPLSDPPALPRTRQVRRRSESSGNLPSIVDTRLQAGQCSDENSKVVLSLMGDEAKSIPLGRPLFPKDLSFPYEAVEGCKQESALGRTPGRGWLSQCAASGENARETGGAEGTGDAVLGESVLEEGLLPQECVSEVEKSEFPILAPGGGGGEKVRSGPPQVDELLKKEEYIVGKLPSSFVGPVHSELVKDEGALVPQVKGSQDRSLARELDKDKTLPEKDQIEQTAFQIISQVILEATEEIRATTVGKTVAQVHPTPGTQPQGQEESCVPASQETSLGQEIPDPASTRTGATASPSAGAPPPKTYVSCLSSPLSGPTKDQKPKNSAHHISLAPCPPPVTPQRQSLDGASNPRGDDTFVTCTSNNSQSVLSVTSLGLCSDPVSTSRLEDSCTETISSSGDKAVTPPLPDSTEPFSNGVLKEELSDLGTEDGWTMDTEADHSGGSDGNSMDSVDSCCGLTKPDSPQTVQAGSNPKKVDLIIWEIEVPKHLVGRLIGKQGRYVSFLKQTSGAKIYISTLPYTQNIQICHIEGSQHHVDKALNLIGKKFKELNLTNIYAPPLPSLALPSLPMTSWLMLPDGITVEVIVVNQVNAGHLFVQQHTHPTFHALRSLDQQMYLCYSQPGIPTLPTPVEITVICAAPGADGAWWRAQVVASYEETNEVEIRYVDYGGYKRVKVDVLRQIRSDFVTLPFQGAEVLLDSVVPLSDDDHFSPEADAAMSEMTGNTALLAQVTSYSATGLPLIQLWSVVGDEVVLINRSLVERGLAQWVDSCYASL

COc1ccc(NC(=O)CSc2nc3ccccc3c(=O)[nH]2)c(OC)c1 [Z160]
UCP1 expression (UCP1): 7 fold | expression of CIDEA, ACADM, CPT1B and ELOVL3 (UCP1): greatly increased expression | effect on hypertrophic gene expression profile (Nppa, Nppb, Pln) induced by isoproterenol or phenylephrine (NRVM): prevented the induction of a hypertrophic gene expression profile; also recorded: reverses the effect of ISO and PE | pronase susceptibility of AKAP1 (AKAP1): not | heat stability of p38 MAPK (p38 MAPK): did not influence the heat stability | heat stability of AKAP6 (AKAP6): did not influence the heat stability
